Reference: patent US7666836B2, “Method for the therapeutic management of endometriosis” (priority 1999, dated 2010)
Non-standard residues stand in square brackets, D forms with d. Residues, ends and D or L forms follow the SMILES beside them. dPhe(4-Cl) = N[C@H](Cc1ccc(Cl)cc1)C(=O)O; d2Nal = N[C@H](Cc1ccc2ccccc2c1)C(=O)O; dCit = NC(=O)NCCC[C@@H](N)C(=O)O; d3Pal = N[C@H](Cc1cccnc1)C(=O)O

Assays:
[1] = tested on: patients with confirmed endometriosis; assay: weekly Cetrorelix acetate treatment of nine patients with confirmed endometriosis (FIG. 1); format: in vivo, human; details: 3 mg s.c. weekly for 8 weeks; for hot flushes or other (estradiol) withdrawal symptoms: patients with endometriosis
[2] = tested on: patients with endometriosis; assay: weekly Cetrotide s.c. over eight weeks in endometriosis patients with symptomatic pain; format: in vivo, human; details: 3 mg s.c. per week over eight weeks
Method: Aim of the medicinal therapy of patients with endometriosis with symptomatic pain is to obtain a treatment without side effects, especially avoiding the negative effects of estrogen suppression and which is long-lasting after finishing therapy. The specific pharmacological mode of action of LHRH antagonists allows new possibilities for treatment of endometriosis.
The weekly administration of an adequate dose of an LHRH antagonist, e.g. 3 mg Cetrotide® s.c./per week over a period of eight weeks leads to a controlled suppression of estrogen secretion so that serum concentrations between about 35 pg/ml and about 80 pg/ml, preferably between about 45-75 pg/ml, more preferably between about 50-75 pg/ml are obtained. […] Also the development of osteoporosis can be avoided.

[3] = tested on: patients with endometriosis; details: 3 mg s.c. per week over eight weeks; stages rAFS I-II; cited from earlier work
estradiol serum levels = estradiol serum levels after weekly administration of cetrorelix (FIG. 2); format: in vivo
Description: […] The estradiol serum levels are between about 35-80 pg/ml, preferably between about 45-75 pg/ml, more preferably between about 50-75 pg/ml.

CC(=O)N[C@H](Cc1ccc2ccccc2c1)C(=O)N[C@H](Cc1ccc(Cl)cc1)C(=O)N[C@H](Cc1cccnc1)C(=O)N[C@@H](CO)C(=O)N[C@@H](Cc1ccc(O)cc1)C(=O)N[C@H](CCCNC(N)=O)C(=O)N[C@@H](CC(C)C)C(=O)N[C@@H](CCCNC(=N)N)C(=O)N1CCC[C@H]1C(=O)N[C@H](C)C(N)=O [Cetrorelix acetate] (Ac-[d2Nal][dPhe(4-Cl)][d3Pal]SY[dCit]LRP[dA]-NH2)
proliferation of the endometrium at the end of treatment (histological biopsies) [1]: no proliferation of the endometrium | proliferation of the endometrium at the end of treatment (histological biopsies) ([1]; listed as Cetrorelix): without proliferation of the endometrium | ovarian cyst formation ([1]; nine patients): No ovarian cyst formation occurred | progress of the disease confirmed by 2nd look laparascopy ([1]; nine patients): without any progress of the disease | hot flushes or other (estradiol) withdrawal symptoms [1]: avoiding any hot flushes or other withdrawal symptoms | hot flushes or other (estradiol) withdrawal symptoms ([1]; listed as Cetrorelix): without any signs of estradiol withdrawal symptoms | symptomatic pain ([2]; all stages of the disease (rAFS I-IV)): effectively suppressed | vegetative symptoms ([2]; serum concentration range about 35-80 pg/ml): no vegetative symptoms arise | clinical regression of the disease (decrease of the implantation area) [3]: clinical regression of the disease | estradiol serum levels (FIG. 2) (estradiol serum levels; weekly dose of 1 mg once per week): 35 to 80 pg/mL | estradiol serum levels (FIG. 2) (estradiol serum levels; weekly dose of 3 mg once per week): 35 to 80 pg/mL
